Measurements: patent publication US11508483B2, “Method of identifying a subgroup of patients suffering from dcSSc which benefits from a treatment with sGC stimulators and sGC activators in a higher degree than a control group” (ADVERIO PHARMA GMBH, priority 2018, dated 2022)

Columns and labels:
[1] = tested on: human dermal fibroblasts of SSc patients; conditions: in vitro; cited from earlier work
[2] = tested on: TGFβ-induced skin fibrosis; conditions: mouse, in vivo; cited from earlier work
patients with dcSSc [3] = assay: RISE-SSc clinical study: lung function, FVC % predicted; type: in vivo, human; conditions: for Difference in LSMeans with regard to FVC % predicted: Riociguat vs placebo, week 52
Source text: Pulmonary physiologic measures, particularly FVC, have frequently been used as surrogate endpoints for SSc-ILD and IPF. […] Also in IPF measurable decline in FVC is correlated with mortality. […] The primary efficacy outcome measure was the change in mRSS from baseline to week 52. Key secondary efficacy measure was Combined Response Index for Systemic Sclerosis (CRISS).

patients with dcSSc [4] = assay: RISE-SSc clinical study: modified Rodnan skin score (mRSS); type: in vivo, human; design: key to Difference in LSMeans with regard to mRSS: mRSS points (skin thickness score, max 51); conditions: for Difference in LSMeans with regard to mRSS: Riociguat vs placebo, week 52; for mean change of mRSS for Riociguat compared to placebo: baseline to week 52
Source text: The modified Rodnan skin score (mRSS) is a measure of skin thickness and is used as a primary or secondary outcome measure in clinical trials of systemic sclerosis. The maximum mRSS possible is 51. Standardization of the modified Rodnan skin score for use in clinical trials of systemic sclerosis is described in Khanna, D. et al., 2017b. […] The primary efficacy outcome measure was the change in mRSS from baseline to week 52. Key secondary efficacy measure was Combined Response Index for Systemic Sclerosis (CRISS).

patients with dcSSc [5] = assay: RISE-SSc clinical study: Health Assessment Questionnaire disability index (HAQ-DI); type: in vivo, human; conditions: Riociguat vs placebo, week 52
Procedure: The Health Assessment Questionnaire Disability Index (HAQ-DI) is a well-accepted measure of physical function for various rheumatic diseases, and it is the most widely employed and reported measure for assessing physical function in SSc. As a post hoc analysis in study 16277, the percentage of patients stratified by HAQ-DI categorized change was also performed. Clinically meaningful disease improvement was defined as a decrease in HAQ-DI of more than −0.21 from baseline to week 52; stabilization and/or disease worsening were defined as a change in HAQ-DI less than or equal to −0.21 from baseline to week 52. […] The primary efficacy outcome measure was the change in mRSS from baseline to week 52. Key secondary efficacy measure was Combined Response Index for Systemic Sclerosis (CRISS).

[6] = tested on: systemic sclerosis patients; conditions: cited from earlier work
[7] = subgroup FVC % predicted at baseline 50-75
[8] = subgroup FVC % predicted at baseline >75
[9] = subgroup anti-RNA polymerase III autoantibodies negative
[10] = subgroup anti-RNA polymerase III autoantibodies positive

## Nc1nc(-c2nn(Cc3ccccc3F)c3ncccc23)ncc1C1CC1 [BAY 41-2272]
[1]
  collagen production: reduce collagen production
[2]
  progression of TGFβ-induced skin fibrosis: prevented the progression

## COC(=O)N(C)c1c(N)nc(-c2nn(Cc3ccccc3F)c3ncccc23)nc1N [Riociguat, methyl 4,6-diamino-2-[1-(2-fluorobenzyl)-1H-pyrazolo[3,4-b]pyridin-3-yl]-5-pyrimidinyl(methyl)carbamate]
[1]
  collagen production: reduce collagen production
Patients with dcSSc [3]; Riociguat group, dcSSc patients positive for anti-RNA polymerase III autoantibodies
  change of lung function (FVC % predicted) at week 52 compared to baseline: +1.2
Patients with dcSSc [3]; [7]
  Difference in LSMeans with regard to FVC % predicted: 9.2
Patients with dcSSc [3]; [8]
  Difference in LSMeans with regard to FVC % predicted: −1.3
Patients with dcSSc [3]; subgroup ILD at baseline no
  Difference in LSMeans with regard to FVC % predicted: −1.7
Patients with dcSSc [3]; subgroup ILD at baseline yes
  Difference in LSMeans with regard to FVC % predicted: 5.1
Patients with dcSSc [3]; [9]
  Difference in LSMeans with regard to FVC % predicted: −0.9
Patients with dcSSc [3]; [10]
  Difference in LSMeans with regard to FVC % predicted: 3.5
Patients with dcSSc [3]; subgroup hsCRP >10 mg/L
  Difference in LSMeans with regard to FVC % predicted: 2.4
Patients with dcSSc [3]; subgroup hsCRP ≤10 mg/L
  Difference in LSMeans with regard to FVC % predicted: −0.5
Patients with dcSSc [4]; [7]
  Difference in LSMeans with regard to mRSS: −8.0
Patients with dcSSc [4]; [8]
  Difference in LSMeans with regard to mRSS: −1.7
Patients with dcSSc [4]; [9]
  Difference in LSMeans with regard to mRSS: 0.3
Patients with dcSSc [4]; [10]
  Difference in LSMeans with regard to mRSS: −10.5
Patients with dcSSc [4]; subgroup hsCRP >3 mg/L
  Difference in LSMeans with regard to mRSS: −5.8
Patients with dcSSc [4]; subgroup hsCRP >10 mg/L
  Difference in LSMeans with regard to mRSS: −7.5
Patients with dcSSc [4]; subgroup hsCRP ≤3 mg/L
  Difference in LSMeans with regard to mRSS: 1.0
Patients with dcSSc [4]; subgroup hsCRP ≤10 mg/L
  Difference in LSMeans with regard to mRSS: −1.2
Patients with dcSSc [4]; patients with FVC % predicted at baseline of 50-75
  mean change of mRSS for Riociguat compared to placebo: −7.9 units
Patients with dcSSc [4]; patients with hsCRP>10 mg/L
  mean change of mRSS for Riociguat compared to placebo: −7.5 units
Patients with dcSSc [4]; patients with hsCRP>3
  mean change of mRSS for Riociguat compared to placebo: −5.8 units
Patients with dcSSc [4]; patients ≥65 y of age
  mean change of mRSS for Riociguat compared to placebo: −6.7 units
Patients with dcSSc [5]; [7]
  Difference in LSMeans with regard to HAQ-DI: −0.22
Patients with dcSSc [5]; [8]
  Difference in LSMeans with regard to HAQ-DI: −0.07
Patients with dcSSc [5]; [9]
  Difference in LSMeans with regard to HAQ-DI: 0.02
Patients with dcSSc [5]; [10]
  Difference in LSMeans with regard to HAQ-DI: −0.44
Patients with dcSSc [5]; subgroup hsCRP >10 mg/L
  Difference in LSMeans with regard to HAQ-DI: −0.13
Patients with dcSSc [5]; subgroup hsCRP ≤10 mg/L
  Difference in LSMeans with regard to HAQ-DI: −0.03

## Tocilizumab: monoclonal anti-IL-6 receptor-α antibody approved e.g. for the treatment of patients with rheumatoid arthritis
[6]; open-label period
  skin score and FVC in placebo-treated patients who transitioned to tocilizumab: skin score improvement and FVC stabilization
[6]; week 48
  influence of anti-RNA polymerase III autoantibody profile on the effect on change in mRSS or ppFVC: little clinically meaningful influence
